Source: US7244760B2, “Methods for preparation and use of psorospermin analogs” (Board of Regents, The University of Texas System, priority 2001, dated 2007)
“Also recorded” adds a separate entry of the source. Read-outs that look alike come from different tables or passages of the source.

Legend:
MCF7 (breast) = assay: Microcytoxicity assay (SRB), MCF7; type: cell-based, human; conditions: for In vitro cytotoxic potency: 4 days, SRB
From the text: (§1) (i) Human tumor cell lines. Human tumor cell lines representative of major forms of human cancer for use in the microcytoxicity assay include MCF7 (breast), SW480 (colon), HL-60 (promyelocytic leukemia), MiaPaCa-2 (pancreatic), U937 (histiocytic lymphoma), and 8226 (myeloma) (see Table 5). One drug resistant variant of 8226 was also included: 8226/DOX40, an mdr-1-mediated drug resistant cell line. Other matched pairs may also be added. All lines have known karyotypes that are checked at least annually for quality control.
(§2) Cells were grown in suspension in RPMI 1640 medium supplemented with 5% fetal bovine serum, 1% (v/v) penicillin (100 unit/ml), streptomycin (100 μg/ml), and 1% (v/v) L-glutamine (all from GIBCO, Grand Island, N.Y.) at 37° C. in 5% CO2, 95% air atmosphere, and were passaged once every six days. Additionally, these lines are capable of in vivo growth in SCID mice for in vivo confirmatory studies. In initial experiments, two diastereomeric pairs of (±)-psorospermin methyl ethers in a series of cell lines were evaluated.
(§3) (ii) Microcytoxicity assay. A standard 96-well microcytoxicity assay is performed by plating each cell line in a microtiter plate at 4,000-10,000 cells per well (depending on cell doubling time), six replicate wells per drug dose. All plates are incubated for 4 days at 37° C. in a humidified tissue culture incubator containing 5% CO2 in air. The endpoint determination uses sulforhodamine blue (SRB) and spectrophotometric determination of protein content of each well as reflected by SRB staining. IC50 values were calculated by linear regression analysis.

SW480 (colon) = assay: Microcytoxicity assay (SRB), SW480; type: cell-based, human; conditions: 4 days
From the text: as §1, §2
(§4) (ii) Microcytoxicity assay. A standard 96-well microcytoxicity assay is performed by plating each cell line in a microtiter plate at 4,000-10,000 cells per well (depending on cell doubling time), six replicate wells per drug dose. […] IC50 values were calculated by linear regression analysis.

MiaPaCa-2 (pancreatic) = assay: Microcytoxicity assay (SRB), MiaPaCa-2; type: cell-based, human; conditions: for In vitro cytotoxic potency: MiaPaCa-2, 4 days, SRB
From the text: as §1, §2, §3

8226 (myeloma) = assay: Microcytoxicity assay (SRB), 8226; type: cell-based, human; conditions: 4 days
From the text: as §1, §2, §4

[1] = tested on: 8226/DOX40, an mdr-1-mediated drug resistant cell line; assay: Microcytoxicity assay (SRB), 8226/DOX40; type: cell-based, human; conditions: 4 days
From the text: as §1, §2, §4

[2] = tested on: HL-60 (promyelocytic leukemia); assay: Microcytoxicity assay (SRB), HL-60; type: cell-based, human
From the text: as §1, §2, §3

DU 145 = assay: Microcytoxicity assay (SRB), DU 145; type: cell-based, human
Procedure: as §2, §3

HT-29 = assay: Microcytoxicity assay (SRB), HT-29; type: cell-based, human
Procedure: as §3

topoisomerase II = topoisomerase II (Drosophila melanogaster, UniProt P15348); assay: Topoisomerase II-mediated DNA cleavage; type: biochemical
Sequence of topoisomerase II (P15348 whole entry): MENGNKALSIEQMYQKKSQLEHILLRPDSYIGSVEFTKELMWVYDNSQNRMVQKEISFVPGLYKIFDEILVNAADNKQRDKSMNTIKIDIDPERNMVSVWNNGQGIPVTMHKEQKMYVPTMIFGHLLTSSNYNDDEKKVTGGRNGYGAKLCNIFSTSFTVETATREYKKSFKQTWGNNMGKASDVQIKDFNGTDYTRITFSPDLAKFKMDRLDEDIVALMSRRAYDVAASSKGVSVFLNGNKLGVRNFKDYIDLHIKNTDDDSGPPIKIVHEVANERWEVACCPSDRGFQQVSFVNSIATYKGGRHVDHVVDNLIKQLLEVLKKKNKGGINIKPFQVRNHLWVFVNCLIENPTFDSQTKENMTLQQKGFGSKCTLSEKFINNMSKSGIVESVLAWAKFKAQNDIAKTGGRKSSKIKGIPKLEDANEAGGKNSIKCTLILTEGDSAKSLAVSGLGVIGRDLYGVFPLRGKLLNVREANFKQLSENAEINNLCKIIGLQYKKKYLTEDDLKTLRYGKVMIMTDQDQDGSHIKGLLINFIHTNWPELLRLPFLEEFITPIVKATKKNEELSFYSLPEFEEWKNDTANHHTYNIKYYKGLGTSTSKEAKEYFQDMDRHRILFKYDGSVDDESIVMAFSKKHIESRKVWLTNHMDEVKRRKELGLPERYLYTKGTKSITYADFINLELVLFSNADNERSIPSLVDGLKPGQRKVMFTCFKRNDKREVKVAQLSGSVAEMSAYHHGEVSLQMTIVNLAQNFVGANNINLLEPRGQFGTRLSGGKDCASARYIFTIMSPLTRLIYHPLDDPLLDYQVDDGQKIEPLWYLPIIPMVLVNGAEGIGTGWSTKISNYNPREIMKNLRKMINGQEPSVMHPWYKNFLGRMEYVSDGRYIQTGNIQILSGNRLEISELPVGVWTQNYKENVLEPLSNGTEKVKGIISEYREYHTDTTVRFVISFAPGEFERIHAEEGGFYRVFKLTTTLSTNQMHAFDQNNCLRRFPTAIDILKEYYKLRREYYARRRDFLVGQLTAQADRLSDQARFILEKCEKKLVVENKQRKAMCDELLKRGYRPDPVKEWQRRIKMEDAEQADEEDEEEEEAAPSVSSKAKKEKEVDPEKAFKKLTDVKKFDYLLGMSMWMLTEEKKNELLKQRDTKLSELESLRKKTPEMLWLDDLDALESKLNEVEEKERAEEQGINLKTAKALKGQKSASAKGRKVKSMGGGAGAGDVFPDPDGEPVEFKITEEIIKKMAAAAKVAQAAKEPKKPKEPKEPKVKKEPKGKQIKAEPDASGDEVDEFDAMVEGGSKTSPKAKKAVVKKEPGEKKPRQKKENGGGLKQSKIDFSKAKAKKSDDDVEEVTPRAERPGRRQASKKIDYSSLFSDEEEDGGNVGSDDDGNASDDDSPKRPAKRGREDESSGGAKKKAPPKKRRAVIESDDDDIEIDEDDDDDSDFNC
Procedure: (§5) In the absence of psorospermin, the intensity of the topoisomerase II-mediated DNA cleavage is much less at site B than at site A. As the concentration of psorospermin was increased, the topoisomerase II-mediated DNA cleavage at site A was decreased, while the cleavage at site B was enhanced. The psorospermin-induced DNA cleavage by topoisomerase II reaches a maximum of 3-fold at a 10 μM drug concentration (FIG. 4). […] On the other hand, the cleaved complex formation at site A was reduced in the presence of psorospermin, despite the 3-fold enhancement of psorospermin alkylation at site A.
(§6) Sites A and B are three base pairs apart from each other, and Drosophila topoisomerase II binds a region of approximately 23 base pairs, based on the results of a DNase I footprinting experiment (Lee et al, 1989). Therefore, it is likely that sites A and B are competing with each other for topoisomerase II binding, and the 25-fold enhancement of the psorospermin alkylation at site B dominates this competition. FIG. 5 summarizes the three possible biochemical consequences of the site-directed alkylation of DNA by psorospermin. Because psorospermin is a 7-alkyl adduct, depurination occurs slowly at room temperature over a period of several days.

[3] = biological target: topoisomerase II-DNA complex (Drosophila melanogaster, UniProt P15348); assay: Topoisomerase II site-directed alkylation of DNA; type: biochemical; conditions: in the presence of topoisomerase II
Sequence of topoisomerase II-DNA complex (P15348 whole entry, one chain of several): as the sequence (P15348 whole entry) above
Procedure: as §5, §6

P388 mouse leukemia = conditions: cited from earlier work
various tumor cell lines = conditions: cited from earlier work
[4] = tested on: U937 (histiocytic lymphoma); assay: Microcytoxicity assay (SRB), U937; type: cell-based, human; conditions: 4 days
From the text: as §1, §2, §4

[5] = tested on: HL60/AR (adriamycin resistant); assay: Microcytoxicity assay (SRB), HL60/AR; type: cell-based, human; conditions: Acute promyelocytic leukemia
Procedure: as §2, §3

[6] = tested on: Acute promyelocytic leukemia; assay: Microcytoxicity assay (SRB), cell line not given; type: cell-based, human; conditions: cell line cell empty; origin Acute promyelocytic leukemia
Procedure: as §2, §3

K562 = assay: Microcytoxicity assay (SRB), K562; type: cell-based, human; conditions: Chronic myelogenous leukemia
Procedure: as §2, §3

[7] = tested on: K562/R (daunorubicin resistant); assay: Microcytoxicity assay (SRB), K562/R; type: cell-based, human; conditions: Chronic myelogenous leukemia
Procedure: as §2, §3

A2780 = assay: Microcytoxicity assay (SRB), A2780; type: cell-based, human; conditions: Ovarian
Procedure: as §2, §3

[8] = tested on: A2780/CP70 (cisplatin resistant); assay: Microcytoxicity assay (SRB), A2780/CP70; type: cell-based, human; conditions: Ovarian
Procedure: as §2, §3

MCF 10A = assay: Microcytoxicity assay (SRB), MCF 10A; type: cell-based; conditions: Breast, normal mammary
Procedure: as §2, §3

LnCAP = assay: Microcytoxicity assay (SRB), LnCAP; type: cell-based, human; conditions: Prostate, lymph node mets
Procedure: as §2, §3

PEAZ-1 = assay: Microcytoxicity assay (SRB), PEAZ-1; type: cell-based, human; conditions: Prostate, primary
Procedure: as §2, §3

PC-3 = assay: Microcytoxicity assay (SRB), PC-3; type: cell-based, human; conditions: Prostate, adenocarcinoma, mets
Procedure: as §2, §3

PC-3N = assay: Microcytoxicity assay (SRB), PC-3N; type: cell-based, human; conditions: Prostate, N-cadherin positive
Procedure: as §2, §3

tumor cell lines = assay: Microcytoxicity assay, all tumor cell lines tested; type: cell-based, human; conditions: on average over the cell lines of Table 5
From the text: as §1, §2, §4

(±)-(2′R,3′S) (2′S,3′R) psorospermin methyl ether [Compound B]
In vitro cytotoxic potency (MCF7 (breast)): 0.74 µg/mL | In vitro cytotoxic potency (SW480 (colon)): 0.36 µg/mL | In vitro cytotoxic potency (MiaPaCa-2 (pancreatic)): 0.48 µg/mL | In vitro cytotoxic potency (8226 (myeloma)): 0.33 µg/mL | In vitro cytotoxic potency [1]: 0.30 µg/mL | sensitivity of HL-60 ([2]; HL-60, positive for c-myc and BCL-2): highly sensitive

(2R,3S)-psorospermin methyl ether [Compound 117]
IC50 (MiaPaCa-2 (pancreatic); MiaPaCa, read-out: IC50): 400 nM | IC50 (DU 145; DU-145, read-out: IC50): 400 nM | IC50 (HT-29): 700 nM

COc1cc2c(c3oc4c(O)cccc4c(=O)c13)C[C@H]([C@@]1(C)CO1)O2 [psorospermin]
topoisomerase II-mediated DNA cleavage at site A (topoisomerase II; site A, as the concentration of psorospermin was increased): decreased | psorospermin-induced DNA cleavage by topoisomerase II, maximum (topoisomerase II; site B, 10 μM drug concentration): 3 fold | enhancement of psorospermin alkylation at site A ([3]; site A): 3 fold | enhancement of the psorospermin alkylation at site B ([3]; site B): 25 fold | activity in vivo against P388 mouse leukemia (P388 mouse leukemia): significant activity | activity in vitro against various tumor cell lines (various tumor cell lines): significant activity

(2S,3R)-psorospermin methyl ether [Compound 116]
IC50 (MiaPaCa-2 (pancreatic); MiaPaCa, read-out: IC50): 4000 nM | IC50 (DU 145; DU-145, read-out: IC50): 4000 nM | IC50 (HT-29): 7000 nM

COc1c2c(c3oc4ccccc4c(=O)c3c1OC)CC([C@@]1(C)CO1)O2 (mixture of isomers) [Compound A, (±)-(2′R,3′R) (2′S,3′S) psorospermin methyl ether]
In vitro cytotoxic potency (MCF7 (breast)): 0.28 µg/mL | IC50 (MCF7 (breast); Breast, adenocarcinoma): 610 nM | In vitro cytotoxic potency (SW480 (colon)): 0.24 µg/mL | IC50 (MiaPaCa-2 (pancreatic); MIA PaCa-2, pancreas, read-out: IC50 Values): 180 nM | activity in the pancreatic cell line MiaPaCa (MiaPaCa-2 (pancreatic); MiaPaCa): remarkable activity | In vitro cytotoxic potency (MiaPaCa-2 (pancreatic)): 0.26 µg/mL | activity in MiaPaCa compared with gemcytabine (MiaPaCa-2 (pancreatic); MiaPaCa, versus gemcytabine): as good or better | In vitro cytotoxic potency (8226 (myeloma)): 0.21 µg/mL | In vitro cytotoxic potency [1]: 0.06 µg/mL | In vitro cytotoxic potency [4]: 0.062 µg/mL | IC50 ([2]; HL60, origin printed: promyelocytic leukemia): 36 nM | In vitro cytotoxic potency ([2]; HL-60, 4 days, SRB): 0.026 µg/mL | IC50 [5]: 12 nM | IC50 [6]: 11 nM | IC50 (K562): 36 nM | IC50 [7]: 24 nM | IC50 (A2780): 63 nM | IC50 [8]: 473 nM | IC50 (MCF 10A): 5350 nM | IC50 (DU 145; DU 145, Prostate, brain mets, read-out: IC50 Values): 304 nM | IC50 (LnCAP): 460 nM | IC50 (PEAZ-1): 160 nM | IC50 (PC-3): 280 nM | IC50 (PC-3N): 130 nM | effectiveness relative to Compound B (tumor cell lines): more potent; also recorded: twice as effective
